Assay results published in US11878070B2, “Silk-based moisturizer compositions and methods thereof” (Evolved By Nature, Inc., priority 2015, dated 2024).

Assays:
Assay type in all cases: physicochemical
[1] = Silk gel formation (days to gelation / time to gel); settings: 100 mg of vitamin C derivative in 15 mL of 2% silk solution
Text: Samples 1-10 were used to examine the effect of silk to vitamin C ratio on serum gelation. Samples 1-3 with less vitamin C gelled quicker than samples 4 and 5. All other conditions were kept constant. Samples 6-8 with less vitamin C gelled quicker than samples 9 and 10. All other conditions were kept constant. It is concluded that decreasing the ratio of silk to vitamin C (increasing the amount of vitamin C) will lengthen the time to gel creation.
Samples 1, 3, 6, 8, O-1, O-2, O-3, and O-4 were used to examine the effect of temperature treatment on serum gelation time. Samples 1, 6, O-1, and O-2 were identical other than temperature treatment. Samples 3, 8, O-3, and O-4 were identical other than temperature treatment. The two groups differed in silk to vitamin C ratio. Time to serum gelation was directly related to temperature treatment with a higher temperature resulting in quicker serum gelation.
All treatments of silk solution for gel solution were in a conical tube at room temperature unless otherwise stated. […] Temperature affected gel creation time with higher temperatures resulting in quicker gel times. 50° C. treatment gelled in as quick as 2 days, 37° C. treatment gelled in as quick as 3 days, room temperature treatment gelled in 5-8 days and storage in a refrigerator took at least 39 days to gel. The effects of additives on gel creation were dependent on the additive. Vitamin E, Rosemary Oil and Rose Oil all had no effect on gel creation. […] Each also required the presence of vitamin C to gel. Lemon juice from a fresh lemon, pre-squeezed lemon juice from a plastic lemon container and lemon grass oil did affect gel creation. […] Both lemon juice types were able to cause gelation without the presence of vitamin C. This occurred in the same number of days as with vitamin C. The lemongrass oil was able to decrease the number of days to gelation to 2-3 days. Ail additives appeared soluble other than lemongrass oil and rose oil. Rose oil remained in yellow bubbles while the lemongrass oil was partially soluble and formed an albumen like chunk. […]

[2] = Dissolution of vitamin C derivative in aqueous silk solution
Text: Ascorbyl tetraisopalmitate is a highly viscous, oil soluble liquid that might need the help of an emulsifier to possible dissolve in aqueous silk solution.

[3] = HPLC chromatograms of samples comprising vitamin C (degradation products); settings: after 1 hour at ambient conditions without chemical stabilization
Description: No degradation products were visible.
No degradation products were visible. FIG. 59 is a table summarizing the vitamin C concentration in silk protein fragment-films (2% silk films air dried at RT) of the present disclosure. In FIG. 59 processing conditions included 100° C. extraction for 20 min, RT rinse, LiBr in 60° C. oven for 4-6 hours, FIG. 60 is a table summarizing the stability of vitamin C in chemically stabilized solutions. FIGS. 89A-89B are tables summarizing vitamin C stability in SPF gels without chemical stabilizers as compared to chemically stabilized vitamin C in competitive anti-aging skincare products. […] Without wishing to be bound by theory, it appears there is a relationship between vitamin C concentration, silk concentration, and gelation. An increase in vitamin C at a given concentration of silk will result in a longer time to gelation or inhibit gelation. This may be due to the vitamin C molecule physically blocking interaction between silk protein fragments or cross-linking of silk protein.

time to gel formation [1]	Structure (SMILES)	other results
3 days	O=C1O[C@H]([C@@H](O)CO)C(O)=C1O[C@H]1O[C@H](CO)[C@@H](O)[C@H](O)[C@H]1O [Ascorbic acid-2-glucoside, Ascorbic Acid-2-Glucoside]	
	CCCCCCCCC(CCCCCC)C(=O)OC[C@H](OC(=O)C(CCCCCC)CCCCCCCC)[C@H]1OC(=O)C(OC(=O)C(CCCCCC)CCCCCCCC)=C1OC(=O)C(CCCCCC)CCCCCCCC (some centres unmarked) [Ascorbyl tetraisopalmitate, Ascorbyl Tetraisopalmitate]	ability to dissolve or be dispersed in aqueous silk solution [2]: unable to dissolve or be dispersed
failed to create a gel	O=C1O[C@H]([C@@H](O)CO)C([O-])=C1OP(=O)([O-])[O-].[Na+].[Na+].[Na+] [Sodium ascorbyl phosphate from Aromantic, Sodium Ascorbyl Phosphate]	
28 days	O=C1O[C@H]([C@@H](O)CO)C([O-])=C1OP(=O)([O-])[O-].[Na+].[Na+].[Na+] [Sodium ascorbyl phosphate from DSM, Sodium Ascorbyl Phosphate]	
	O=C1O[C@H]([C@@H](O)CO)C(O)=C1O [vitamin C, L-ascorbic acid]	degradation products (HPLC) [3]: degradation products are visible
